Source: patent US20220056019A1, “FARNESOID X RECEPTOR AGONISTS AND USES THEREOF” (Metacrine, Inc., priority 2018, published 2022)
pEC50: −log10 of the molar value.

Molecular target: T1, hFXR (Homo sapiens, UniProt Q96RI1)
T1 construct: expressed in transfected cells; host or cells: CV-1 cells
T1 sequence (Q96RI1 1-486): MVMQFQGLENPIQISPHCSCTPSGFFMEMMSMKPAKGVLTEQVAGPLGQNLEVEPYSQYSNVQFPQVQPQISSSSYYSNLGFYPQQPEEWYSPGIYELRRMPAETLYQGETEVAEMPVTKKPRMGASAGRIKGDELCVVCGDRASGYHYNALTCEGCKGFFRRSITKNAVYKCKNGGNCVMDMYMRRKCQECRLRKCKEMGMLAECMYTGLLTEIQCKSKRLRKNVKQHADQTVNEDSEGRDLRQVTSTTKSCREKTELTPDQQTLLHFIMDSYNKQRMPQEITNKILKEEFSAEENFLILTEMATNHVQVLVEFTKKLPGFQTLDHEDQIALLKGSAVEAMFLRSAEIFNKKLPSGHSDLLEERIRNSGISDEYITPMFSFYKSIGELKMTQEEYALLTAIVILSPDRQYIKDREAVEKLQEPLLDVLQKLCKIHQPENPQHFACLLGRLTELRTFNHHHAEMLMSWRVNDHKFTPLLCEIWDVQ
T1 sequence (P19793 1-462 partner): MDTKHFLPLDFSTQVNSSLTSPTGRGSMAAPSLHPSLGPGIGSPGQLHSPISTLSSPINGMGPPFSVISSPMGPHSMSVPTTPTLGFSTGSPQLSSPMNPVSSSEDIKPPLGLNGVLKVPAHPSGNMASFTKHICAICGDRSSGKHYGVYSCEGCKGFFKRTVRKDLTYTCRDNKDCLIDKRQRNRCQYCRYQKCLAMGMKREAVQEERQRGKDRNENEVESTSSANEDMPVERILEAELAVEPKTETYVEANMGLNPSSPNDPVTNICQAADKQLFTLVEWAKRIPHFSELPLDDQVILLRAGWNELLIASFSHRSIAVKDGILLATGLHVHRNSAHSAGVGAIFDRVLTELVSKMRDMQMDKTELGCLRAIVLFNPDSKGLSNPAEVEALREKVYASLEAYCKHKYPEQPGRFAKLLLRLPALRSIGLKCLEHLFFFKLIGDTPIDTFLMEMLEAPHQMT
Assay: In Vitro FXR Assay (TK): TK-ECRE-luc reporter in transfected CV-1 cells
Format: cell-based
Settings: 18 hrs incubation, luminescence
Summary of the method: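 First, CV-1 cells were grown overnight in stripped-serum DMEM, then transfected for 18 h with expression plasmids for human FXR and RXR plus a TK-ECRE luciferase reporter and YFP. Next, serially diluted compounds were applied for 18 h, and lysates were read by luminescence.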

Q: With COc1ccc([C@H]2CC[C@H](CN(c3cc(-c4ccc(N(C)C)nc4)ccn3)C(=O)[C@H]3CC[C@H](OC(=O)N4CC(O)C4)CC3)CC2)cc1C [Compound 3, trans-4-((6-(Dimethylamino)-[3,4′-bipyridine]-2′-yl)((trans-4-(4-methoxy-3-methylphenyl)cyclohexyl)methyl)carbamoyl)cyclohexyl 3-hydroxyazetidine-1-carboxylate] as the compound, how does the pEC50 read?
A: Its pEC50 is no less than 7.30.

Q: With COCC1CN(C(=O)O[C@H]2CC[C@H](C(=O)N(CC34CCC(c5ccc(OC)c(C)c5)(CC3)CC4)c3cc(-c4cnn(C(C)C)c4)ccn3)CC2)C1 [Compound 4.41, 4-((4-(1-Isopropyl-1H-pyrazol-4-yl)pyridin-2-yl) ((4-(4-methoxy-3-methylphenyl)bicyclo [2.2.2]octan-1-yl)methyl)carbamoyl)cyclohexyl trans-3-(methoxymethyl) azetidine-1-carboxylate] as the compound, how does the pEC50 read?
A: The pEC50 was no less than 7.30.

Q: With COc1ccc(C23CCC(CN(c4cc(-c5cnn(C(C)C)c5)ccn4)C(=O)[C@H]4CC[C@H](OC(=O)N5CC(CS(C)(=O)=O)C5)CC4)(CC2)CC3)cc1C [Compound 4.44, 4-((4-(1-Isopropyl-1H-pyrazol-4-yl)pyridin-2-yl) ((4-(4-methoxy-3-methylphenyl)bicyclo [2.2.2]octan-1-yl)methyl)carbamoyl)cyclohexyl trans-3-((methylsulfonyl)methyl)azetidine-1-carboxylate] as the compound, how does the pEC50 read?
A: Its pEC50 is no less than 7.30.

Q: How did the pEC50 turn out when COc1ccc([C@H]2CC[C@H](CN(c3cccc(-c4cnn(C(C)C)c4)c3)C(=O)[C@H]3CC[C@H](OC(=O)NCC(C)(C)O)CC3)CC2)nc1C [Compound 5.01, trans-4-((3-(1-Isopropyl-1H-pyrazol-4-yl)phenyl)((trans-4-(5-methoxy-6-methylpyridin-2-yl)cyclohexyl)methyl)carbamoyl)cyclohexyl (2-hydroxy-2-methylpropyl) carbamate] was run?
A: Its pEC50 is no less than 7.30.

Q: How did the pEC50 turn out when CCOc1ncc(-c2ccnc(N(C[C@H]3CC[C@H](c4ccc(OC)c(C)c4)CC3)C(=O)[C@H]3CC[C@H](OC(=O)N4CC(O)C4)CC3)c2)s1 [Compound 2.43, trans-4-((4-(2-Ethoxythiazol-5-yl)pyridin-2-yl)((trans-4-(4-methoxy-3-methylphenyl)cyclohexyl)methyl)carbamoyl)cyclohexyl 3-hydroxyazetidine-1-carboxylate] was run?
A: The pEC50 was no less than 7.30.

Q: How did the pEC50 turn out when COc1ccc([C@H]2CC[C@H](CN(c3cc(-c4coc(C5CC5)n4)ccn3)C(=O)[C@H]3CC[C@H](OC(=O)NC4COC4)CC3)CC2)cc1C [Compound 2.53, trans-4-((4-(2-Cyclopropyloxazol-4-yl)pyridin-2-yl)(((trans)-4-(4-methoxy-3-methylphenyl)cyclohexyl)methyl)carbamoyl)cyclohexyl oxetan-3-ylcarbamate] was run?
A: The pEC50 was no less than 7.30.

Q: With COc1ccc(C23CCC(CN(c4cc(-c5cnn(C6(C)CCC6)c5)ccn4)C(=O)[C@H]4CC[C@H](OC(=O)N5CC(S(C)(=O)=O)C5)CC4)(CC2)CC3)cc1C [Compound 25.19, 4-(((4-(4-Methoxy-3-methylphenyl)bicyclo[2.2.2]octan-1-yl)methyl)(4-(1-(1-methylcyclobutyl)-1H-pyrazol-4-yl)pyridin-2-yl)carbamoyl)(trans-cyclohexyl) 3-(methylsulfonyl)azetidine-1-carboxylate] as the compound, how does the pEC50 read?
A: The pEC50 was no less than 7.30.

Q: How did the pEC50 turn out when COc1ccc(C23CCC(CN(c4cc(-c5coc(C6CC6)n5)ccn4)C(=O)[C@H]4CC[C@H](OC(=O)N5CC(CO)C5)CC4)(CC2)CC3)cc1C [Compound 4.31, 4-((4-(2-Cyclopropyloxazol-4-yl)pyridin-2-yl)((4-(4-methoxy-3-methylphenyl)bicyclo[2.2.2]octan-1-yl)methyl)carbamoyl)(trans-cyclohexyl) 3-(hydroxymethyl)azetidine-1-carboxylate] was run?
A: Its pEC50 is no less than 7.30.

Q: COc1ccc(C23CCC(CN(c4cc(-c5cnn(C(C)C)c5)ccn4)C(=O)[C@H]4CC[C@H](NC(=O)OCCO)CC4)(CC2)CC3)cc1C [Compound 7, (trans)-2-Hydroxyethyl (4-((4-(1-isopropyl-1H-pyrazol-4-yl)pyridine-2-yl)((4-(4-methoxy-3-methylphenyl)bicyclo[2.2.2]octan-1-yl)methyl)carbamoyl)cyclohexyl)carbamate] was tested. Which pEC50 did it give?
A: The pEC50 was no less than 7.30.

Q: How did the pEC50 turn out when COc1ccc([C@H]2CC[C@H](CN(c3cc(-c4cnn(C(C)C)c4)ccn3)C(=O)[C@H]3CC[C@H](OC(=O)NC[C@@H](F)CO)CC3)CC2)cc1C [Compound 2.41, trans-4-((4-(1-Isopropyl-1H-pyrazol-4-yl)pyridin-2-yl) (((trans)-4-(4-methoxy-3-methylphenyl)cyclohexyl)methyl)carbamoyl) cyclohexyl((R)-2-fluoro-3-hydroxypropyl)carbamate] was run?
A: Its pEC50 is no less than 7.30.

Q: How did the pEC50 turn out when O=C(O[C@H]1CC[C@H](C(=O)N(C[C@H]2CC[C@H](c3cc4ccccn4c3)CC2)c2cccc(-c3cnc(C4CC4)s3)c2)CC1)N1CC(O)C1 [Compound 5.14, trans-4-((3-(2-Cyclopropylthiazol-5-yl)phenyl)((trans-4-(indolizin-2-yl)cyclohexyl)methyl)carbamoyl) cyclohexyl 3-hydroxyazetidine-1-carboxylate] was run?
A: The pEC50 was no less than 7.30.

Q: With COc1ccc(C23CCC(CN(c4cc(-c5cnn(C(C)C)c5)ncn4)C(=O)[C@H]4CC[C@H](OC(=O)N5CC(C#N)C5)CC4)(CC2)CC3)cc1C [Compound 23.22, 4-((6-(1-Isopropyl-1H-pyrazol-4-yl)pyrimidin-4-yl)((4-(4-methoxy-3-methylphenyl)bi-cyclo[2.2.2]octan-1-yl)methyl)carbamoyl(trans-cyclohexyl) 3-cyanoazetidine-1-carboxylate] as the compound, how does the pEC50 read?
A: Its pEC50 is 6.00 to 7.30.

Q: How did the pEC50 turn out when COc1ccc(C23CCC(CN(c4cc(-c5cnn(C6CC[S+]([O-])CC6)c5)ccn4)C(=O)[C@H]4CC[C@H](OC(=O)N5CC(O)C5)CC4)(CC2)CC3)cc1C (stereo partly drawn) [Compound 26.22, 4-(((4-(4-Methoxy-3-methylphenyl)bicyclo[2.2.2]octan-1-yl)methyl)(4-(1-(1-oxidotetrahydro-2H-thiopyran-4-yl)-1H-pyrazol-4-yl)pyridin-2-yl)carbamoyl)cyclohexyl trans-3-hydroxyazetidine-1-carboxylate] was run?
A: Its pEC50 is 5.00 to 6.00.

Q: With COc1c(C)cc(C23CCC(CN(c4cc(-c5cnn(C(C)C)c5)ccn4)C(=O)[C@H]4CC[C@H](OC(=O)N5CC(O)C5)CC4)(CC2)CC3)cc1C [Compound 26.07, 4-((4-(1-Isopropyl-1H-pyrazol-4-yl)pyridin-2-yl)((4-(4-methoxy-3,5-dimethylphenyl)bicyclo[2.2.2]octan-1-yl)methyl)carbamoyl)cyclohexyl trans-3-hydroxyazetidine-1-carboxylate] as the compound, how does the pEC50 read?
A: The pEC50 was no less than 7.30.

Q: How did the pEC50 turn out when COc1ccc([C@H]2CC[C@H](CN(c3cccc(-c4cnn(C(C)C)c4)c3)C(=O)[C@H]3CC[C@H](CNS(=O)(=O)C(C)C)CC3)CC2)cc1C [Compound 12.04, (trans)-N-(3-(1-Isopropyl-1H-pyrazol-4-yl)phenyl)-N-(((trans)-4-(4-methoxy-3-methylphenyl)cyclohexyl)methyl)-4-((1-methylethylsulfonamido)methyl)cy-clohexanecarboxamide] was run?
A: Its pEC50 is 6.00 to 7.30.

Q: How did the pEC50 turn out when COc1ccc(C23CCC(CN(c4cc(-c5cnn(C(C)C)c5)ccn4)C(=O)[C@H]4CC[C@H](OC(=O)NCCCO)CC4)(CC2)CC3)cc1C [Compound 4.07, 4-((4-(1-Isopropyl-1H-pyrazol-4-yl)pyridin-2-yl)((4-(4-methoxy-3-methylphenyl)bicyclo [2.2.2]octan-1-yl)methyl)carbamoyl)cyclohexyl (3-hydroxypropyl)trans-carbamate] was run?
A: Its pEC50 is no less than 7.30.

Q: How did the pEC50 turn out when COc1ccc(C23CCC(CN(c4cc(-c5cnn(C(C)C)c5)ccn4)C(=O)[C@H]4CC[C@H](OC(=O)N5CCOCC5)CC4)(CC2)CC3)cc1C [Compound 4.14, 4-((4-(1-Isopropyl-1H-pyrazol-4-yl)pyridin-2-yl)((4-(4-methoxy-3-methylphenyl)bicyclo [2.2.2]octan-1-yl)methyl)carbamoyl)cyclohexyl morpholine-trans-4-carboxylate] was run?
A: The pEC50 was no less than 7.30.

Q: COc1ccc([C@H]2CC[C@H](CN(c3cccc(-c4cnn(C(C)C)c4)c3)C(=O)[C@H]3CC[C@H](NC(=O)OC(C)C)CC3)CC2)cc1C [Compound 6.02, Isopropyl (trans-4-((3-(1-isopropyl-1H-pyrazol-4-yl)phenyl)((trans-4-(4-methoxy-3-methylphenyl)cyclohexyl)meth-yl)carbamoyl)cyclohexyl)carbamate] was tested. Which pEC50 did it give?
A: Its pEC50 is no less than 7.30.

Q: CCc1ncc(-c2ccnc(N(CC34CCC(c5ccc(OC)c(C)c5)(CC3)CC4)C(=O)[C@H]3CC[C@H](OC(=O)N4CC(CO)C4)CC3)c2)s1 [Compound 4.37, 4-((4-(2-Ethylthiazol-5-yl)pyridin-2-yl)((4-(4-methoxy-3-methylphenyl)bicyclo[2.2.2]octan-1-yl)methyl)carbamoyl) cyclohexyl3-(hydroxymethyl)azetidine- trans-1-carboxylate] was tested. Which pEC50 did it give?
A: The pEC50 was 6.00 to 7.30.
